Assay results taken from PMC11678425, “(-)-Syringaresinol Exerts an Antidepressant-like Activity in Mice by Noncompetitive Inhibition of the Serotonin Transporter” (Pharmaceuticals, 2024).

What was measured:
hSERT T583A = target: T1, hSERT T583A (Homo sapiens, UniProt P31645, T583A); experiment: ASP^+ binding, hSERT T583A; settings: S2 site mutant, read-out: SYR IC50 for Binding
T1 construct: forward and reverse primers were used to amplify a full-length hSERT; expressed in transfected cells; host or cells: HeLa
T1 sequence (P31645 whole entry T583A): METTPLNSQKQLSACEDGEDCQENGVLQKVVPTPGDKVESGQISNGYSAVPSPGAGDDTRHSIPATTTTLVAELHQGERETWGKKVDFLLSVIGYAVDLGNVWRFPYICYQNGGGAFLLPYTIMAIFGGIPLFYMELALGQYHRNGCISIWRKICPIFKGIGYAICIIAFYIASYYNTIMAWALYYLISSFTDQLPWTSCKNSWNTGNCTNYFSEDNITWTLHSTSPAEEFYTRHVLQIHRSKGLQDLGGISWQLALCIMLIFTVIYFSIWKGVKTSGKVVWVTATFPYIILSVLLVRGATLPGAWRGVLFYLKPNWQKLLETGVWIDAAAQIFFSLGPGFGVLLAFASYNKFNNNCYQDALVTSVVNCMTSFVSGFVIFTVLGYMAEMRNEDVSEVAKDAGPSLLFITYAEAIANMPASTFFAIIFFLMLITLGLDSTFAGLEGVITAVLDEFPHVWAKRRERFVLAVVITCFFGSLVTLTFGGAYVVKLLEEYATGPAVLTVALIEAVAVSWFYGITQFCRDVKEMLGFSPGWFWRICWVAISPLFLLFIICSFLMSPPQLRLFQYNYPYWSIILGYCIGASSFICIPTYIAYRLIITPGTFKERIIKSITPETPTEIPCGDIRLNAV

c-Fos = c-Fos immunohistochemistry in mPFC of CUMS mice; format: in vivo, mouse; settings: 10 mg/kg i.p.
Protocol: Figure 7 SYR effects on the expression of c-Fos and synaptic proteins in mPFC. (A) Representative immunohistochemical images of c-Fos expression in mPFC under the indicated treatments. Immunohistochemistry of c-Fos was performed with mPFC slices as described in Section 4. The slices were re-probed with anti-DAPI antibody. Immunofluorescence images for c-Fos (green) and DAPI (blue) were acquired by confocal microscopy. (B) Quantitative analysis for c-Fos expression in mPFC with various treatments. Protein expression is expressed as a percentage of c-Fos fluorescence measured in the control group. Bars represent the mean ± SEM (n = 4). * p < 0.05, ** p < 0.01 compared with the control or CUMS group by one-way ANOVA followed by post hoc tests, respectively. (C) Representative immunoblots of the synaptic proteins BDNF, PSD-95, GluA1, and vGluT1 with various treatments. (D–G) Quantification of the expression of the synaptic proteins BDNF (D), PSD-95 (E), GluA1 (F), and vGluT1 (G). The expression level is expressed as a percentage of the integrated density obtained from the control group. Bars represent the mean ± SEM (n = 4). * p < 0.05, ** p < 0.01 by one-way ANOVA followed by post hoc tests.
Mouse mPFC and hippocampal slices were prepared as previously described. […]

[1] = test system: BDNF, PSD-95, GluA1, and vGluT1; experiment: Immunoblot of synaptic proteins in hippocampus of CUMS mice; format: in vivo, mouse; settings: same dosage as fluoxetine (10 mg/kg i.p.)
Text: Figure 8 SYR effects on the expression of c-Fos and synaptic proteins in the hippocampus. (A) Representative immunohistochemical images of c-Fos expression in the hippocampus with the indicated treatments. (B) Quantitative analysis for hippocampal c-Fos expression with various treatments. Protein expression level is expressed as a percentage of c-Fos fluorescence measured in the control group. Bars represent the mean ± SEM (n = 4). ** p < 0.01 compared with the control or CUMS group by one-way ANOVA followed by post hoc tests. (C) Representative immunoblots of the synaptic proteins BDNF, PSD-95, GluA1, and vGluT1 with various treatments. (D–G) Quantification of the expression of synaptic proteins BDNF (D), PSD-95 (E), GluA1 (F), and vGluT1 (G). The expression level is expressed as a percentage of the integrated density obtained from the control group. Bars represent the mean ± SEM (n = 4). * p < 0.05, ** p < 0.01 by one-way ANOVA followed by post hoc tests.
Synaptic proteins were extracted from mPFC or hippocampus tissues using RIPA lysis buffer, respectively. Expression of the indicated proteins under various treatments was then analyzed by immunoblotting, as previously reported. […] Quantification of immunoreactive protein bands was performed using Image J v1.53u, and GAPDH was used as an internal reference to normalize expression levels of those proteins, respectively.

hSERT = hSERT (Homo sapiens, UniProt P31645); format: cell-based; design: forward and reverse primers were used to amplify a full-length hSERT; expressed in transfected cells; host or cells: HeLa
Chain of hSERT (P31645 whole entry): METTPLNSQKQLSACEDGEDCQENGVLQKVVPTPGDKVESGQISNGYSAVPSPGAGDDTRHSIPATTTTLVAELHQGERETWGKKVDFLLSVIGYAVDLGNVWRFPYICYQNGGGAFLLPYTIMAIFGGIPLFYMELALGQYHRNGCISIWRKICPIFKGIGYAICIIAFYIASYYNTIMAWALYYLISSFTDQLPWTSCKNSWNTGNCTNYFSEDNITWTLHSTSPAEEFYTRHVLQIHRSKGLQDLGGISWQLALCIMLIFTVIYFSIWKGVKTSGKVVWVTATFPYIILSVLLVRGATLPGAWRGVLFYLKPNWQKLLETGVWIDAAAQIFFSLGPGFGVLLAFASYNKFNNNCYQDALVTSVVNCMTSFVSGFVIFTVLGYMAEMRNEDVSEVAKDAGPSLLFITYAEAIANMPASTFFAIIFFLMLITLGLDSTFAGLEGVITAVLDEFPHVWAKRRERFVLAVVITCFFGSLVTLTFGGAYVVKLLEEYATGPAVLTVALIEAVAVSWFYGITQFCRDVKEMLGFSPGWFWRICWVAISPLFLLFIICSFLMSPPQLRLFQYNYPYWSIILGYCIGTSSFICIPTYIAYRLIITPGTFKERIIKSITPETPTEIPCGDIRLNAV

COc1cc([C@@H]2OC[C@@H]3[C@H]2CO[C@H]3c2cc(OC)c(O)c(OC)c2)cc(OC)c1O [SYR, (-)-syringaresinol]
IC50 (hSERT T583A): 30.9 ± 0.93 µM | CUMS-induced decrease in expression of c-Fos in mPFC (c-Fos): significantly elevated | CUMS-induced decrease in expression of synaptic proteins in the hippocampus [1]: effectively alleviate | hSERT expression on the cell surface (hSERT): did not alter
